{"source": "patent US9006250B2", "about": "“4-amino-6-(heterocyclic)picolinates and 6-amino-2-(heterocyclic)pyrimidine-4-carboxylates and their use as herbicides” (Dow AgroSciences, LLC, priority 2013, dated 2015)"}
{"system": "not given", "assay": "not given", "settings": "not given", "units": {"melting point": "°C"}}
{"molecule": "COC(=O)c1nc(-c2cc3nonc3cc2F)c(F)c(N)c1Cl", "note": "[Compound 3, Methyl 4-amino-3-chloro-5-fluoro-6-(6-fluorobenzo[c][1,2,5]oxadiazol-5-yl)picolinate]", "melting point": "180 to 182"}
{"system": "AMARE: redroot pigweed (Amaranthus retroflexus)", "assay": "Post-Emergent Test II herbicidal activity", "assay_type": "in vivo", "settings": "post-emergence, 336 h, 35 g ai/ha, 14 days, read-out: Visual Growth Reduction (%) 14 Days After Application AMARE", "outline": "(§1)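 Test species are sprayed post-emergence when they reach the first or second true leaf, using an aqueous acetone/DMSO spray with crop oil and surfactant delivered at 187 L/ha. Plants are kept in the greenhouse with subirrigation, and damage compared with untreated plants is rated visually at 14 d on a 0-100% scale.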", "units": {"pest or weed control at 35 g/ha": "%"}}
{"molecule": "COC(=O)c1nc(-c2cc3nonc3cc2F)c(F)c(N)c1Cl", "note": "[Compound 3, Methyl 4-amino-3-chloro-5-fluoro-6-(6-fluorobenzo[c][1,2,5]oxadiazol-5-yl)picolinate]", "pest or weed control at 35 g/ha": "95 to 100"}
{"system": "AMARE: redroot pigweed (Amaranthus retroflexus)", "assay": "Post-Emergent Test II herbicidal activity", "assay_type": "in vivo", "settings": "post-emergence, 336 h, 70 g ai/ha, 14 days, read-out: Visual Growth Reduction (%) 14 Days After Application AMARE", "outline": "as §1", "units": {"pest or weed control at 70 g/ha": "%"}}
{"molecule": "COC(=O)c1nc(-c2cc3nonc3cc2F)c(F)c(N)c1Cl", "note": "[Compound 3, Methyl 4-amino-3-chloro-5-fluoro-6-(6-fluorobenzo[c][1,2,5]oxadiazol-5-yl)picolinate]", "pest or weed control at 70 g/ha": "95 to 100"}
{"system": "AMARE: redroot pigweed (Amaranthus retroflexus)", "assay": "Post-Emergent Test II herbicidal activity", "assay_type": "in vivo", "settings": "post-emergence, 336 h, 140 g ai/ha, 14 days, read-out: Visual Growth Reduction (%) 14 Days After Application AMARE", "outline": "as §1", "units": {"pest or weed control at 140 g/ha": "%"}}
{"molecule": "COC(=O)c1nc(-c2cc3nonc3cc2F)c(F)c(N)c1Cl", "note": "[Compound 3, Methyl 4-amino-3-chloro-5-fluoro-6-(6-fluorobenzo[c][1,2,5]oxadiazol-5-yl)picolinate]", "pest or weed control at 140 g/ha": "95 to 100"}
{"system": "SETFA: giant foxtail (Setaria faberi)", "assay": "Post-Emergent Test II herbicidal activity", "assay_type": "in vivo", "settings": "post-emergence, 336 h, 35 g ai/ha, 14 days, read-out: Visual Growth Reduction (%) 14 Days After Application SETFA", "outline": "as §1", "units": {"pest or weed control at 35 g/ha": "%"}}
{"molecule": "COC(=O)c1nc(-c2cc3nonc3cc2F)c(F)c(N)c1Cl", "note": "[Compound 3, Methyl 4-amino-3-chloro-5-fluoro-6-(6-fluorobenzo[c][1,2,5]oxadiazol-5-yl)picolinate]", "pest or weed control at 35 g/ha": "45 to 59"}
{"system": "SETFA: giant foxtail (Setaria faberi)", "assay": "Post-Emergent Test II herbicidal activity", "assay_type": "in vivo", "settings": "post-emergence, 336 h, 70 g ai/ha, 14 days, read-out: Visual Growth Reduction (%) 14 Days After Application SETFA", "outline": "as §1", "units": {"pest or weed control at 70 g/ha": "%"}}
{"molecule": "COC(=O)c1nc(-c2cc3nonc3cc2F)c(F)c(N)c1Cl", "note": "[Compound 3, Methyl 4-amino-3-chloro-5-fluoro-6-(6-fluorobenzo[c][1,2,5]oxadiazol-5-yl)picolinate]", "pest or weed control at 70 g/ha": "45 to 59"}
{"system": "SETFA: giant foxtail (Setaria faberi)", "assay": "Post-Emergent Test II herbicidal activity", "assay_type": "in vivo", "settings": "post-emergence, 336 h, 140 g ai/ha, 14 days, read-out: Visual Growth Reduction (%) 14 Days After Application SETFA", "outline": "as §1", "units": {"pest or weed control at 140 g/ha": "%"}}
{"molecule": "COC(=O)c1nc(-c2cc3nonc3cc2F)c(F)c(N)c1Cl", "note": "[Compound 3, Methyl 4-amino-3-chloro-5-fluoro-6-(6-fluorobenzo[c][1,2,5]oxadiazol-5-yl)picolinate]", "pest or weed control at 140 g/ha": "45 to 59"}
{"system": "CYPES: yellow nutsedge (Cyperus esculentus)", "assay": "Post-Emergent Test II herbicidal activity", "assay_type": "in vivo", "settings": "post-emergence, 336 h, 35 g ai/ha, 14 days, read-out: Visual Growth Reduction (%) 14 Days After Application CYPES", "outline": "as §1", "units": {"pest or weed control at 35 g/ha": "%"}}
{"molecule": "COC(=O)c1nc(-c2cc3nonc3cc2F)c(F)c(N)c1Cl", "note": "[Compound 3, Methyl 4-amino-3-chloro-5-fluoro-6-(6-fluorobenzo[c][1,2,5]oxadiazol-5-yl)picolinate]", "pest or weed control at 35 g/ha": "60 to 74"}
{"system": "CYPES: yellow nutsedge (Cyperus esculentus)", "assay": "Post-Emergent Test II herbicidal activity", "assay_type": "in vivo", "settings": "post-emergence, 336 h, 70 g ai/ha, 14 days, read-out: Visual Growth Reduction (%) 14 Days After Application CYPES", "outline": "as §1", "units": {"pest or weed control at 70 g/ha": "%"}}
{"molecule": "COC(=O)c1nc(-c2cc3nonc3cc2F)c(F)c(N)c1Cl", "note": "[Compound 3, Methyl 4-amino-3-chloro-5-fluoro-6-(6-fluorobenzo[c][1,2,5]oxadiazol-5-yl)picolinate]", "pest or weed control at 70 g/ha": "95 to 100"}
{"system": "CYPES: yellow nutsedge (Cyperus esculentus)", "assay": "Post-Emergent Test II herbicidal activity", "assay_type": "in vivo", "settings": "post-emergence, 336 h, 140 g ai/ha, 14 days, read-out: Visual Growth Reduction (%) 14 Days After Application CYPES", "outline": "as §1", "units": {"pest or weed control at 140 g/ha": "%"}}
{"molecule": "COC(=O)c1nc(-c2cc3nonc3cc2F)c(F)c(N)c1Cl", "note": "[Compound 3, Methyl 4-amino-3-chloro-5-fluoro-6-(6-fluorobenzo[c][1,2,5]oxadiazol-5-yl)picolinate]", "pest or weed control at 140 g/ha": "95 to 100"}
{"system": "HELAN: sunflower (Helianthus annuus)", "assay": "Post-Emergent Test II herbicidal activity", "assay_type": "in vivo", "settings": "post-emergence, 336 h, 35 g ai/ha, 14 days, read-out: Visual Growth Reduction (%) 14 Days After Application HELAN", "outline": "as §1", "units": {"pest or weed control at 35 g/ha": "%"}}
{"molecule": "COC(=O)c1nc(-c2cc3nonc3cc2F)c(F)c(N)c1Cl", "note": "[Compound 3, Methyl 4-amino-3-chloro-5-fluoro-6-(6-fluorobenzo[c][1,2,5]oxadiazol-5-yl)picolinate]", "pest or weed control at 35 g/ha": "85 to 94"}
{"system": "HELAN: sunflower (Helianthus annuus)", "assay": "Post-Emergent Test II herbicidal activity", "assay_type": "in vivo", "settings": "post-emergence, 336 h, 70 g ai/ha, 14 days, read-out: Visual Growth Reduction (%) 14 Days After Application HELAN", "outline": "as §1", "units": {"pest or weed control at 70 g/ha": "%"}}
{"molecule": "COC(=O)c1nc(-c2cc3nonc3cc2F)c(F)c(N)c1Cl", "note": "[Compound 3, Methyl 4-amino-3-chloro-5-fluoro-6-(6-fluorobenzo[c][1,2,5]oxadiazol-5-yl)picolinate]", "pest or weed control at 70 g/ha": "85 to 94"}
{"system": "HELAN: sunflower (Helianthus annuus)", "assay": "Post-Emergent Test II herbicidal activity", "assay_type": "in vivo", "settings": "post-emergence, 336 h, 140 g ai/ha, 14 days, read-out: Visual Growth Reduction (%) 14 Days After Application HELAN", "outline": "as §1", "units": {"pest or weed control at 140 g/ha": "%"}}
{"molecule": "COC(=O)c1nc(-c2cc3nonc3cc2F)c(F)c(N)c1Cl", "note": "[Compound 3, Methyl 4-amino-3-chloro-5-fluoro-6-(6-fluorobenzo[c][1,2,5]oxadiazol-5-yl)picolinate]", "pest or weed control at 140 g/ha": "95 to 100"}
{"system": "BRSNN: oilseed rape, canola (Brassica napus)", "assay": "Post-Emergent Test II herbicidal activity", "assay_type": "in vivo", "settings": "post-emergence, 336 h, 35 g ai/ha, 14 days, read-out: Visual Growth Reduction (%) 14 Days After Application BRSNN", "outline": "as §1", "units": {"pest or weed control at 35 g/ha": "%"}}
{"molecule": "COC(=O)c1nc(-c2cc3nonc3cc2F)c(F)c(N)c1Cl", "note": "[Compound 3, Methyl 4-amino-3-chloro-5-fluoro-6-(6-fluorobenzo[c][1,2,5]oxadiazol-5-yl)picolinate]", "pest or weed control at 35 g/ha": "85 to 94"}
{"system": "BRSNN: oilseed rape, canola (Brassica napus)", "assay": "Post-Emergent Test II herbicidal activity", "assay_type": "in vivo", "settings": "post-emergence, 336 h, 70 g ai/ha, 14 days, read-out: Visual Growth Reduction (%) 14 Days After Application BRSNN", "outline": "as §1", "units": {"pest or weed control at 70 g/ha": "%"}}
{"molecule": "COC(=O)c1nc(-c2cc3nonc3cc2F)c(F)c(N)c1Cl", "note": "[Compound 3, Methyl 4-amino-3-chloro-5-fluoro-6-(6-fluorobenzo[c][1,2,5]oxadiazol-5-yl)picolinate]", "pest or weed control at 70 g/ha": "85 to 94"}
{"system": "BRSNN: oilseed rape, canola (Brassica napus)", "assay": "Post-Emergent Test II herbicidal activity", "assay_type": "in vivo", "settings": "post-emergence, 336 h, 140 g ai/ha, 14 days, read-out: Visual Growth Reduction (%) 14 Days After Application BRSNN", "outline": "as §1", "units": {"pest or weed control at 140 g/ha": "%"}}
{"molecule": "COC(=O)c1nc(-c2cc3nonc3cc2F)c(F)c(N)c1Cl", "note": "[Compound 3, Methyl 4-amino-3-chloro-5-fluoro-6-(6-fluorobenzo[c][1,2,5]oxadiazol-5-yl)picolinate]", "pest or weed control at 140 g/ha": "95 to 100"}
{"system": "EPHHL: wild poinsettia (Euphorbia heterophylla)", "assay": "Post-Emergent Test II herbicidal activity", "assay_type": "in vivo", "settings": "post-emergence, 336 h, 35 g ai/ha, 14 days, read-out: Visual Growth Reduction (%) 14 Days After Application EPHHL", "outline": "as §1", "units": {"pest or weed control at 35 g/ha": "%"}}
{"molecule": "COC(=O)c1nc(-c2cc3nonc3cc2F)c(F)c(N)c1Cl", "note": "[Compound 3, Methyl 4-amino-3-chloro-5-fluoro-6-(6-fluorobenzo[c][1,2,5]oxadiazol-5-yl)picolinate]", "pest or weed control at 35 g/ha": "45 to 59"}
{"system": "EPHHL: wild poinsettia (Euphorbia heterophylla)", "assay": "Post-Emergent Test II herbicidal activity", "assay_type": "in vivo", "settings": "post-emergence, 336 h, 70 g ai/ha, 14 days, read-out: Visual Growth Reduction (%) 14 Days After Application EPHHL", "outline": "as §1", "units": {"pest or weed control at 70 g/ha": "%"}}
{"molecule": "COC(=O)c1nc(-c2cc3nonc3cc2F)c(F)c(N)c1Cl", "note": "[Compound 3, Methyl 4-amino-3-chloro-5-fluoro-6-(6-fluorobenzo[c][1,2,5]oxadiazol-5-yl)picolinate]", "pest or weed control at 70 g/ha": "45 to 59"}
